Data reported in US11020358B2, “Method for the anti-senescence of and/or rejuvenating stem cells” (GWO XI STEM CELL APPLIED TECHNOLOGY CO., LTD., priority 2014, dated 2021).

Test system: Wister rats
Experiment: Liver fibrosis rat model: biochemical functional indexes of cardiac blood
Assay type: in vivo
Conditions: 200 mg/kg TAA i.p. once every three days for 60 days, cardiac blood 4 days after last injection
Description: 200 mg/kg of thioacetamide (TAA) was intraperitoneally injected to 8-week-old male Wister rats (n=35) once every three days for 60 days (i.e., 20 injections in total) to obtain a liver fibrosis rat model (hereinafter referred to as the “TAA group” rat). Additionally, rats that injected with equal volume of normal saline but not TAA were served as a “control group” (n=12). At 4 days after the last injection, four rats in the “control group” and three rats in the “TAA group” were anesthetized with ether and analyzed by the following experiments.
The cardiac blood of the “control group” and “TAA group” rats was collected and measured by a biochemical analyzer (Roche, Integra 800) to analyze the biochemical functional indexes, and thereby, evaluating the extent of hepatic damage. The biochemical functional indexes include the expression level of glutamate oxaloacetate transaminase (GOT), the expression level of glutamate pyruvate transaminase (GPT), the expression level of albumin, the expression level of total bilirubin, and prothrombin time.

## CC(=N)S [TAA, thioacetamide]
  Albumin: 2.8 ± 0.4 g/dL
  GOT: 546 ± 48 Units/L
  GPT: 138 ± 47 Units/L
  Prothrombin time: 16.4 ± 3.0 s
  Total bilirubin: 0.049 ± 0.009 mg/dL
